Reference: patent publication US5011828A, “Immunostimulating guanine derivatives, compositions and methods” (priority 1988, dated 1991)
Converted amounts (≈) assume the structure as drawn.

Legend:
[1] = tested on: anti-TNP-BSA antibody titers in CBA/CaJ mice; experiment: In vivo anti-TNP-BSA antibody response (ELISA); parameters: species or system mouse; settings: i.p., 0.2 ml at 5 mg/ml, 37 days
Experimental: FIG. 4 is a graph containing a number of plots that illustrate the in vivo kinetics of enhanced anti-trinitrophenyl bovine serum albumin (TNP-BSA) antibody responses elicited by contacting leukocytes in vivo with a composition containing 7-allyl-8-mercaptoguanosine (7a8MGuo). Here, the guanosine derivative (0.2 ml of 7a8MGuo at 5 mg/ml) was in a vehicle of 100 percent sesame oil (solid line) or 2 percent sesame oil in saline (dotted line) when introduced into the animal.
Three groups of CBA/CaJ mice were utilized. Each group was immunized with the TNP-BSA conjugate. […]
Antibody titers to TNP-BSA were determined over a period of 37 days using standard enzyme-linked immunosorbent assay (ELISA) procedures with TNP-BSA as antigen. […]
CBA/CaJ mice were immunized intraperitonally (i.p.) using a conjugate (TNP-BSA) prepared by the reaction of 2,4,6-trinitrobenzene sulfonic acid (TNBS) and bovine serum albumin (BSA) in a 0.28 molar cacodylate buffer, at pH 6.9. […] Anti-TNP-BSA antibody secretion from each group was thereafter monitored over a period of 37 days by standard enzyme-linked immunosorbant assay (ELISA) techniques using TNP-BSA as antigen.
Injections. […] Anti-TNP-BSA antibody titers were determined using standard techniques.

[2] = tested on: CBA/CaJ thymocytes (irradiated BDF1 splenocyte stimulators); experiment: T cell proliferation in mixed leukocyte cultures, CBA/CaJ thymocytes; assay type: cell-based, mouse; settings: Study 3, responder +, stimulator +
Source text: A third and fourth study utilized thymocytes from CBA/CaJ mice as the stimulated (responder) cells, and irradiated BDFl mouse spleen cells as the stimulator cells. Two guanosine derivatives of the present invention, 7a8MGuo and 7a8oGuo, were used for these studies, with 8MGuo serving as positive control for one of the studies.
However, in the presence of interleukin-2 (IL-2), those cells develop responsiveness to allogeneic stimulation. The present studies utilizing thymocytes were therefore carried out in the presence of a co-stimulating amount of IL-2.
^1 Plus signs (+) are utilized to indicate the presence of the
^3 Allogeneic cells used to costimulate proliferation, after exposure
T Helper Cell Activation. 1.5×10^5 viable spleen cells from SJL mice or CBA/CaJ mouse thymocytes were cultured with or without an equal number of irradiated (2500 rads) spleen cells from CBA/CaJ or BDFl mice respectively, in 0.2 ml of culture medium in the presence of incremental concentrations of the exemplary 7,8-disubstituted guanine derivatives. The lymphocyte culture medium utilized was that described before, and was further supplemented with 2-mercaptoethanol to a final concentration of 50 uM. Thymocyte cultures also contained 10 percent (v/v) of a concanavalin A-conditioned rat spleen cell medium sold under the name Rat T Cell Monoclone by Collaborative Research. Following 90 hours of culture, one microCurie [^3 H]TdR per culture was admixed, and the resulting culture was maintained for a further six hour time period.
The cultures were harvested with a Brandel cell harvester (M24V, Biological Research and Development Laboratories, Rockville, Md.) onto glass fiber filter disks. Filter disks were transferred to plastic scintillation vials, covered with liquid scintillation cocktail, and counted in a Beckman LS5700 liquid scintillation counter.

physchem = assay type: physicochemical, human
Source text: Solubilities in urine could be expected to be lower than those for water due to the relatively higher salt content in urine than is found in water.
Each sample was filtered through a 5 micron pore-sized filter, diluted as necessary with the HPLC mobile phase, and then quantified by HPLC.

solubility in human urine, in words (physchem): relatively insoluble
solubility at 18 h (physchem; human, urine): 300 µg/mL (≈ 844 µM)
SMILES: C=CCn1c(=S)n([C@@H]2O[C@H](CO)[C@@H](O)[C@H]2O)c2nc(N)[nH]c(=O)c21 [7a8MGuo, 7-(2-Propenyl)-8-thioxoguanosine]
anti-TNP-BSA antibody titer, ratio to control ([1]; 2 percent sesame oil in saline vehicle): about 4 times
anti-TNP-BSA antibody titer, ratio to control ([1]; 100 percent sesame oil vehicle): about 5 times
[3H] TdR Uptake ([2]; 10^-4 M): 21,400 ± 1200 counts per minute
[3H] TdR Uptake ([2]; 10^-5 M): 15,300 ± 600 counts per minute
[3H] TdR Uptake ([2]; 10^-6 M): 11,800 ± 400 counts per minute
